Measurements from patent publication US12714681B2, “Packaged, sealed container system for stable storage of an oxygen sensitive pharmaceutical formulation” (Baxter International Inc., priority 2020, dated 2026).

Columns and labels:
various receptors = settings: R-isomer compared with S-isomer; cited from earlier work
[1] = Exploration of parameters: stability of norepinephrine formulations in 0.9% sodium chloride pre and post terminal sterilization; format: physicochemical
Protocol: Formulation parameters, such as antioxidant concentration and solution pH, were evaluated. Lab-scale batches were prepared and filled into containers through cut corners (resealed). Containers were subsequently vacuum sealed into overpouches. All formulations were prepared in 0.9% sodium chloride. Oxygen levels were controlled by preparing samples within a glove box under N2 atmosphere. Replicates were tested pre and post sterilization. Runs were evaluated by O2 content (head space and solution), pH, concentration of analyte and related compounds, enantiomeric purity, amount of antioxidant, and “visual inspection.”
Nineteen formulations were prepared in accordance with the table above.

[2] = cited from earlier work

SMILES | affinity to various receptors / pharmaceutical activity (various receptors) | rate of epimerization to the S-isomer ([1]; higher pH values) | rate of norepinephrine oxidation ([1]; lower pH values) | solubility in acidic solutions ([2]; acidic solutions) | solubility in alcohols and ethers ([2]; alcohols and ethers) | solubility in water ([2]; water)
NC[C@@H](O)c1ccc(O)c(O)c1 (single isomer, unassigned) [S-isomer] | negligible pharmaceutical activity |  |  |  |  | 
NC[C@H](O)c1ccc(O)c(O)c1 [norepinephrine] |  | decreased the rate of epimerization to the S-isomer | decreased the rate of norepinephrine oxidation | readily soluble | slightly soluble | sparingly soluble
NC[C@H](O)c1ccc(O)c(O)c1 (single isomer, unassigned) [R-isomer] | higher affinity |  |  |  |  | 
